In patent publication US7041677B2, “Use of monochloroflosequinan in the treatment of sexual dysfunction” (R.T. Alamo Ventures I, LLC, priority 2002, dated 2006):

Target: T1, PDE2 (Homo sapiens, UniProt O00408)
T1 construct: PDE2 partially purified from human platelets was used; from tissue; host or cells: human platelets
Test: PDE2 enzyme inhibition assay
Format: biochemical
Conditions: 1% DMSO vehicle
Text: In this example, a racemic mixture of monochloroflosequinan and the sulfone derivative of monochloroflosequinan were independently subjected to biochemical enzyme assays to determine their respective percent inhibition of a variety of phosphodiesterases (PDE1-PDE6). The methods used have been adapted from those described in the scientific literature, see Hidaka and Asano “Human blood platelet 3′:5′ cyclic nucleotide phosphodiesterase. Isolation of low-Km and high Km phosphodiesterase.” Biochem. Biophys. […] Unhydrolyzed cAMP was bound to AGI-X2 resin, and the remaining [^3H]adenosine in the aqueous phase was quantitated by scintillation counting. • PDE2: PDE2 partially purified from human platelets was used. […] Unhydrolyzed cAMP was bound to AGI-X2 resin, and the remaining [^3H]adenosine in the aqueous phase was quantitated by scintillation counting. • PDE3: PDE3 partially purified from human platelets was used. […] Unhydrolyzed cAMP was bound to AGI-X2 resin, and the remaining [^3H]adenosine in the aqueous phase was quantitated by scintillation counting. • PDE4: PDE4 partially purified from human U-937 pronocytic cells was used. […] Unhydrolyzed cAMP was bound to AGI-X2 resin, and the remaining [^3H]adenosine in the aqueous phase was quantitated by scintillation counting. • PDE5: PDE5 partially purified from human platelets was used. […]

T1 sequence (O00408 whole entry): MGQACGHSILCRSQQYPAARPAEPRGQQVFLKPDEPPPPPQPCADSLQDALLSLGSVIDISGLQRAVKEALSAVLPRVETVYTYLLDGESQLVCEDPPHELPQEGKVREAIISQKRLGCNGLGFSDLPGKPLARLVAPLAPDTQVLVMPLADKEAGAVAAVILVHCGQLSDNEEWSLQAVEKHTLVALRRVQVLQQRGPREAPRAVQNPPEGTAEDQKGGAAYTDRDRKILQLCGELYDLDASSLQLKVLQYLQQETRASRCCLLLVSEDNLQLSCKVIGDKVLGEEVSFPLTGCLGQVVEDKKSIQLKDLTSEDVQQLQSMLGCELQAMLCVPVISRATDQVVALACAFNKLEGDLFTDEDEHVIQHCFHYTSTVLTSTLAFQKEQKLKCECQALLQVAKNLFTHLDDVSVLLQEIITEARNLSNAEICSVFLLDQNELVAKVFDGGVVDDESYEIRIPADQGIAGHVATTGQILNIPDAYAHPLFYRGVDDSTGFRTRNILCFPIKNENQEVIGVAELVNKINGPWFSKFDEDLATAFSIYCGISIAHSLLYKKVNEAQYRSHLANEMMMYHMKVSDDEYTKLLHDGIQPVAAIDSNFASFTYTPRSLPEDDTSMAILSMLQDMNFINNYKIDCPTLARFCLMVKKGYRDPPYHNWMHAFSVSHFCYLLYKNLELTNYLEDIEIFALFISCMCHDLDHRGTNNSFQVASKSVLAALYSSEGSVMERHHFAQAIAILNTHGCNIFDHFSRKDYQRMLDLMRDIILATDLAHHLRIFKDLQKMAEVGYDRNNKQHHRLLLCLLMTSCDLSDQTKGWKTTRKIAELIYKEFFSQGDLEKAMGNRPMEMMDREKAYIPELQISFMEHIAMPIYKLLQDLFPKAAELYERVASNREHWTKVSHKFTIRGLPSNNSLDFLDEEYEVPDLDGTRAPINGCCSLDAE

| SMILES | inhibition of PDE2 (100 uM, 30° C.) | inhibition of PDE2 (200 μM, 25° C.) |
| --- | --- | --- |
| Cn1cc([S+]([O-])CCl)c(=O)c2ccc(F)cc21 (racemic) [monochloroflosequinan, 3-chloromethylsulfinyl-7-fluoro-1-methyl-4-quinolone] | Significant inhibition | – |
| Cn1cc([S@+]([O-])CCl)c(=O)c2ccc(F)cc21 (single isomer, unassigned) [(+)-enantiomer of monochloroflosequinan] | – | greater than 50% |
